PMC5080649 (CPT: Pharmacometrics & Systems Pharmacology, 2016)
Converted amounts (≈) assume the structure as drawn. Like-named read-outs stand apart in the source and are kept apart here. One block for each molecule: values may come before it.

Columns and labels:
[1] = for CL renal: male, human, in vivo, GCC-4401C, plasma and urine PK modeling analysis from the SAD study
factor Xa [2] = target: factor Xa (Homo sapiens, UniProt P00742); assay: Antifactor Xa; assay type: in vivo
prothrombin time = assay: Prothrombin time; assay type: in vivo, human; settings: for EC50: Homo sapiens; for comparable dose of rivaroxaban in PT: Monte-Carlo simulation
coagulation factor X = coagulation factor X (Homo sapiens, UniProt P00742); assay: Coagulation factor X; assay type: in vivo
[3] = oral, cited from earlier work
factor X = factor X (Homo sapiens, UniProt P00742); assay: Factor X chromogenic activity assay; assay type: in vivo; settings: for comparable dose of rivaroxaban in FXCAA: Monte-Carlo simulation
[4] = system: activated partial thromboplastin time; assay: Activated partial thromboplastin time; assay type: in vivo, human; settings: for EC50: Homo sapiens
antithrombin III = assay: Antithrombin III; assay type: in vivo, human; settings: AT III activity; GCC4401C, SAD study; Linear model
factor Xa [5] = target: factor Xa (Bos taurus, UniProt P00743); assay: LMWH assay; assay type: in vivo, human; settings: GCC4401C, SAD study
[6] = rivaroxaban 20 mg, fed, S&MAD study
[7] = rivaroxaban 20 mg, fed, S&MAD study, variance (CV %)
[8] = PT (INR), Rivaroxaban, S&MAD study, Simple Emax model
[9] = Coagulation factor X, Rivaroxaban, S&MAD study, Sigmoid Emax model
[10] = Coagulation factor X, Rivaroxaban, S&MAD study, variance (CV %)
[11] = FXCAA, Rivaroxaban, S&MAD study, variance (CV %)
[12] = Activated PT (seconds), Rivaroxaban, S&MAD, Sigmoid Emax model
[13] = GCC4401C oral, fasted, SAD and S&MAD studies, final model
[14] = GCC4401C oral, fasted, SAD and S&MAD studies, variance (CV %)
[15] = GCC-4401C oral, fasted, base model
[16] = Antifactor Xa activity, GCC4401C, S&MAD study, Sigmoid Emax model
[17] = Antifactor Xa activity, GCC4401C, S&MAD study, variance (CV %)
[18] = PT (INR), GCC4401C, SAD and S&MAD studies, Sigmoid Emax model
[19] = Prothrombin time (seconds), GCC4401C, Sigmoid Emax model
[20] = Coagulation factor X, GCC4401C, SAD and S&MAD studies, variance (CV %)
[21] = Coagulation factor X, GCC4401C, variance (CV %)
[22] = FXCAA, GCC4401C, S&MAD study, variance (CV %)

coagulation factor X, sequence (P00742 235-488 limits assumed): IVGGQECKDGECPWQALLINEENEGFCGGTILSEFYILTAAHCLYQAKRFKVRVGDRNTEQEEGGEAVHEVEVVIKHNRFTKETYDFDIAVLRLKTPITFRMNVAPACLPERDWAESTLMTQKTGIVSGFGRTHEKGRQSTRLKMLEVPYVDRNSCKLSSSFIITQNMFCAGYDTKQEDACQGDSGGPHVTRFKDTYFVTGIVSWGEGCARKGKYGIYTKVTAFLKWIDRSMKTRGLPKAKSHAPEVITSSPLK
coagulation factor X, sequence (P00742 41-179 limits assumed): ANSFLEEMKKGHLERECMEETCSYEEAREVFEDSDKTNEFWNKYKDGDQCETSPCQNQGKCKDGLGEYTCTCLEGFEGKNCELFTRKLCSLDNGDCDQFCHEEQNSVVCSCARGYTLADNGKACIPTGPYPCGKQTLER
factor X, sequence (P00742 235-488 limits assumed): as the sequence (P00742 235-488 limits assumed) above
factor X, sequence (P00742 41-179 limits assumed): as the sequence (P00742 41-179 limits assumed) above
factor Xa (Homo sapiens, UniProt P00742), sequence (P00742 235-488 limits assumed): as the sequence (P00742 235-488 limits assumed) above
factor Xa (Homo sapiens, UniProt P00742), sequence (P00742 41-179 limits assumed): as the sequence (P00742 41-179 limits assumed) above

D1 (duration of zero-order absorption) [1, 6]: 1.07 h
γ (shape parameter in Weibull-type absorption model) [1, 6]: 1.34
IIVCL (%) [1, 7]: 0.015 (12.3)
IIVKa (CV, %) [1, 7]: 3.3 (503.1)
IIVVc (CV, %) [1, 7]: 0.01 (10.0)
IIVVp (CV, %) [1, 7]: 0.06 (25.7)
SLOPE (factor Xa [2]; Antifactor Xa activity, Rivaroxaban, S&MAD study, Linear model): 0.005
IIVSLOPE (CV, %) (factor Xa [2]; Antifactor Xa activity, Rivaroxaban, S&MAD study, variance (CV %)): 0.01 (10.8)
EC50 (prothrombin time; [8]): 0.434 µg/mL (≈ 0.996 µM)
Emax (coagulation factor X; [9]): 42.9%
γ (shape parameter) (coagulation factor X; [9]): 0.90
IIVEC50 (CV, %) (coagulation factor X; [10]): 0.33 (62.1)
IOVEC50 (CV, %) (coagulation factor X; [10]): 0.25 (52.9)
Emax (factor X; FXCAA, Rivaroxaban, S&MAD study, Simple Emax model): 112.0%
IIVEC50 (CV, %) (factor X; [11]): 0.07 (26.9)
IOVEC50 (CV, %) (factor X; [11]): 0.01 (8.2)
EC50 [4]: 0.135 µg/mL (≈ 0.31 µM)
SMILES: O=C(NC[C@H]1CN(c2ccc(N3CCOCC3=O)cc2)C(=O)O1)c1ccc(Cl)s1 [rivaroxaban, reference compound]
Emax (prothrombin time; [8]): 0.71 INR
Emax (prothrombin time; Prothrombin time (seconds), Rivaroxaban, S&MAD study, Simple Emax model): 6.86 s
increase of Cmax with food ([3]; >10 mg, with food vs fasting): 76%
increase of mean area under concentration time curve with food ([3]; >10 mg, with food vs fasting): 39%
bioavailability ([3]; independent of food up to 10 mg): 80–100%
Emax [4, 12]: 12.4 s
γ (shape parameter) [4, 12]: 0.94

ALAG1 (delay in absorption) [1, 13]: 0.20 h
D1 (duration of zero-order absorption) [1, 13]: 0.395 h
IIV + IOVALAG1 (CV, %) [1, 14]: 0.14 (38.8)
IIV + IOVD1 (CV, %) [1, 14]: 1.49 (185.4)
IIVCLNR (CV, %) [1, 14]: 0.046 (21.7)
IIVCLR (CV, %) [1, 14]: 0.052 (23.2)
IIVKa (CV, %) [1, 14]: 0.97 (128.0)
IIVVc (CV, %) [1, 14]: 0.09 (30.5)
IIVVp (CV, %) [1, 14]: 0.11 (33.8)
Θ for WT and Vc (power covariate effect of body weight on Vc) ([1]; GCC4401C, Typical Vc=Vc(75)*(WT/75)^Θ): 0.67
Vc [1, 15]: 55.6 L
Vp [1, 15]: 25.9 L
average steady-state volume of distribution [1, 15]: 81.5 L
total clearance ([1]; GCC-4401C oral, fasted, final model): 12.0 L/h
CL renal ([1]; nonrenal clearance (CLNR)): 200 mL/min
CL renal ([1]; renal clearance (CLR)): 13.7 mL/min
EC50 (factor Xa [2]): 1.35 µM
Emax (factor Xa [2]; [16]): 3.24 IU/mL
γ (shape parameter) (factor Xa [2]; [16]): 1.25
IIV + IOVEC50 (%) (factor Xa [2]; [17]): 0.005 (7.2)
IIVEmax (CV, %) (factor Xa [2]; [17]): 0.04 (20.8)
IIVγ (CV, %) (factor Xa [2]; [17]): 0.02 (13.4)
comparable dose of rivaroxaban in AFX assay (factor Xa [2]; Monte-Carlo simulation, GCC-4401C 10 mg): ~20 mg
comparable dose of rivaroxaban in AFX (factor Xa [2]; Monte-Carlo simulation, GCC-4401C 20 mg): ~40 mg
EC50 (prothrombin time; read-out: EC50, SAD, PT (INR), GCC4401C, SAD study, Sigmoid Emax model): 0.426 µg/mL
EC50 (prothrombin time; read-out: EC50, SAD, Prothrombin time (seconds), GCC4401C, SAD study, Sigmoid Emax model): 0.563 µg/mL
EC50 (prothrombin time; read-out: EC50, SAD/MAD, PT (INR), GCC4401C, SAD/MAD study, Sigmoid Emax model): 1.35 µg/mL
EC50 (prothrombin time; read-out: EC50, SAD/MAD, Prothrombin time (seconds), GCC4401C, SAD/MAD study, Sigmoid Emax model): 1.45 µg/mL
EC50 (coagulation factor X): 5.58 µM
Emax (coagulation factor X; Coagulation factor X, GCC4401C, SAD and S&MAD studies, Sigmoid Emax model): 81.2%
IIVEC50 (%) (coagulation factor X; [20]): 0.98 (129.4)
IIVEmax (CV, %) (coagulation factor X; [20]): 0.10 (33.1)
γSAD (shape parameter) (coagulation factor X; Coagulation factor X, GCC4401C, SAD study, Sigmoid Emax model): 1.07
γSAD/MAD (shape parameter) (coagulation factor X; Coagulation factor X, GCC4401C, SAD/MAD study, Sigmoid Emax model): 0.60
IIVγ (CV, %) (coagulation factor X; [21]): 0.24 (51.8)
IOVγ (CV, %) (coagulation factor X; [21]): 0.09 (30.1)
Emax (factor Xa [5]; Simple Emax model): 3.83
IIVEC50 (CV, %) (factor Xa [5]; variance (CV %)): 0.29 (57.4)
EC50 (factor X): 0.814 µM
γ (shape parameter) (factor X; FXCAA, GCC4401C, S&MAD study, Sigmoid Emax model): 0.90
IIVEmax (CV, %) (factor X; [22]): 0.01 (11.3)
IIVγ (CV, %) (factor X; [22]): 0.06 (25.7)
Emax (factor X; Factor X chromogenic activity assay, GCC4401C, S&MAD study, Sigmoid Emax model): 99.8%
comparable dose of rivaroxaban in FXCAA (factor X; GCC-4401C 10 mg): 30 to 40 mg
comparable dose of rivaroxaban in FXCAA (factor X; GCC-4401C 20 mg): ~80 mg
EC50 [4]: 0.573 µg/mL
SMILES: CS(=O)(=O)O.O=C(NC[C@H]1CN(c2ccc(N3CCNC=N3)cc2)C(=O)O1)c1ccc(Cl)s1 [GCC‐4401C, (S)−5‐chloro‐N‐((3‐(4‐(5,6‐dihydro‐1,2,4‐triazin‐1(4H)‐yl)phenyl)−2‐oxooxazolidin‐5‐yl)methyl)thiophene‐2‐carboxamide methanesulfonate]
SLOPE (antithrombin III): 0.006
comparable dose of rivaroxaban in PT (prothrombin time; GCC-4401C 10 mg): 30 to 40 mg
comparable dose of rivaroxaban in PT (prothrombin time; GCC-4401C 20 mg): ~40 mg
Emax (prothrombin time; [18]): 1.32 INR
γ (shape parameter) (prothrombin time; [18]): 1.23
Emax (prothrombin time; [19]): 15.2 s
γ (shape parameter) (prothrombin time; [19]): 1.16
Emax, SAD ([4]; Activated PT (seconds), GCC4401C, SAD study, Sigmoid Emax model): 16.9 s
Emax, SAD/MAD ([4]; Activated PT (seconds), GCC4401C, SAD/MAD study, Sigmoid Emax model): 20.4 s
γ (shape parameter) ([4]; Activated PT (seconds), GCC4401C, Sigmoid Emax model): 1.37
